# Measurements: the NIST ThermoML archive (doi:10.1021/je900193m)
# Test: xn = mol fraction of the nth substance listed
# Details: 101 kPa, Liquid, holographic inferometry, x1 = 0
Structure (SMILES),binary diffusion coefficient (278.15 K),binary diffusion coefficient (281.15 K),binary diffusion coefficient (284.15 K),binary diffusion coefficient (287.15 K),binary diffusion coefficient (290.15 K),binary diffusion coefficient (293.15 K),binary diffusion coefficient (296.15 K),binary diffusion coefficient (299.15 K),binary diffusion coefficient (302.15 K),binary diffusion coefficient (305.15 K),binary diffusion coefficient (308.15 K),binary diffusion coefficient (311.15 K),binary diffusion coefficient (314.15 K),binary diffusion coefficient (317.15 K),binary diffusion coefficient (320.15 K),binary diffusion coefficient (323.15 K),binary diffusion coefficient (326.15 K),binary diffusion coefficient (329.15 K),binary diffusion coefficient (332.15 K),binary diffusion coefficient (335.15 K),other results
CCOC(=O)OCC [diethyl carbonate] + CCCCCCC,3.93e-09 m2/s,3.96e-09 m2/s,3.99e-09 m2/s,4.02e-09 m2/s,4.08e-09 m2/s,4.14e-09 m2/s,4.19e-09 m2/s,4.27e-09 m2/s,4.32e-09 m2/s,4.4e-09 m2/s,4.47e-09 m2/s,4.54e-09 m2/s,4.62e-09 m2/s,4.7e-09 m2/s,4.8e-09 m2/s,4.88e-09 m2/s,4.97e-09 m2/s,5.07e-09 m2/s,5.15e-09 m2/s,5.25e-09 m2/s,binary diffusion coefficient (338.15 K): 5.35e-09 m2/s
CCOC(=O)CCCCC(=O)OCC [diethyl hexanedioate] + CCCCCCC,1.93e-09 m2/s,1.96e-09 m2/s,1.99e-09 m2/s,2.02e-09 m2/s,2.06e-09 m2/s,2.1e-09 m2/s,2.15e-09 m2/s,2.2e-09 m2/s,2.25e-09 m2/s,2.31e-09 m2/s,2.37e-09 m2/s,2.43e-09 m2/s,2.49e-09 m2/s,2.56e-09 m2/s,2.62e-09 m2/s,2.7e-09 m2/s,2.78e-09 m2/s,2.85e-09 m2/s,2.92e-09 m2/s,3.02e-09 m2/s,binary diffusion coefficient (338.15 K): 3.11e-09 m2/s
COC(=O)OC [dimethyl carbonate] + CCCCCCC,4.93e-09 m2/s,4.97e-09 m2/s,5.01e-09 m2/s,5.07e-09 m2/s,5.13e-09 m2/s,5.19e-09 m2/s,5.25e-09 m2/s,5.33e-09 m2/s,5.39e-09 m2/s,5.48e-09 m2/s,5.55e-09 m2/s,5.63e-09 m2/s,5.71e-09 m2/s,5.8e-09 m2/s,5.9e-09 m2/s,5.99e-09 m2/s,6.09e-09 m2/s,6.2e-09 m2/s,6.29e-09 m2/s,6.41e-09 m2/s,binary diffusion coefficient (338.15 K): 6.52e-09 m2/s
